# Experimental data reported in US11547715B2, “Use of chlorogenic acid in preparation of drug for treating chordoma” (SICHUAN JIUZHANG BIOLOGICAL SCIENCE AND TECHNOLOGY CO., LTD, priority 2017, dated 2023).
# Tests used:
# [1] = test system: MDR1 expression in human chordoma CM-319 cells; conditions: RT-PCR, FIG. 1
# From the text: MDR1 primer (Shanghai Bioengineering Co., Ltd.); RNA extraction kit (Jiangsu biyuntian); reverse transcription synthesis kit (Jiangsu biyuntian); chlorogenic acid API (purity 99.6%, Sichuan Jiuzhang Biotechnology Co., Ltd.).
# In this example, RT-PCR was used to detect the effect of different experimental groups on the expression of MDR1 in human chordoma CM-319 cells. CM-319 cells cultured in 6-well plate was collected, and RNA extraction kit was used to extract total RNA in cells, then reverse transcription synthesis kit was used to transcribe the first strand of cDNA. After that, PCR amplification reaction was used to detect the expression level of target genes in different experimental groups.
# [2] = test system: human chordoma CM-319 cells; experiment: CCK-8 proliferation inhibition of human chordoma CM-319 cells; format: cell-based
# Protocol: Drug: chlorogenic acid raw material (99.6% purity, Sichuan Jiuzhang Biotechnology Co., Ltd.) Cell line: human chordoma cell line CM-319 cells (West China Hospital, Sichuan University)
# Human chordoma CM-319 cells growing in logarithmic phase was collected, and the cell concentration was adjusted to 6×10^5 cells/ml with 1640 medium. 100 μL suspension of above cells was taken out and inoculated into 96 well plate, and each experimental group has three replicate wells. To each well, was added 100 μL corresponding drugs, so that the final concentration of chlorogenic acid in the experimental group is 10 μmol/L, 20 μmol/L, and 40 μmol/L, respectively, and then the plate was further cultured for 24 hours. In the negative control group, no drug was added, and only the same volume of 100 μL culture medium was added. After 24 hours, 10 μL CCK-8 solution was added to each well, and the culture plate was incubated in the incubator for another one hour. The absorbance of each well was measured at 450 nm by ELISA. The inhibition of chlorogenic acid on human chordoma CM-319 cells was calculated at various concentrations by using the growth inhibition rate=(absorbance of the negative control group at 450 nm—absorbance of the experimental group at 450 nm)/absorbance of the negative control group at 450 nm×100%.
# [3] = different concentrations (10, 20, 40 μmol/L)
structure (smiles),measurement,setting,value
O=C(/C=C/c1ccc(O)c(O)c1)O[C@@H]1C[C@](O)(C(=O)O)C[C@@H](O)[C@H]1O [chlorogenic acid],expression level of MDR1 in CM-319 cells (in words),[1]; [3],reduce the expression level of MDR1 in CM-319 cells to various degrees
same,expression level of drug-resistant genes (MDR1) in cells (in words),"[1]; high concentration 40 μmol/L, compared with other groups",significantly reduce the expression level of drug-resistant genes
same,inhibition at 10 µM,"[2]; Homo sapiens, Group 1: chlorogenic acid 10 μmol/L, 24 hours, CCK-8, read-out: Inhibitory rate of cells (%)",36.8 ± 5.12%
same,inhibition at 20 µM,"[2]; Homo sapiens, Group 2: chlorogenic acid 20 μmol/L, 24 hours, CCK-8, read-out: Inhibitory rate of cells (%)",48.4 ± 6.11%
same,inhibition at 40 µM,"[2]; Homo sapiens, Group 3: chlorogenic acid 40 μmol/L, 24 hours, CCK-8, read-out: Inhibitory rate of cells (%)",55.5 ± 3.78%
same,inhibition of proliferation of human chordoma cells (in words),[2]; [3],strongly inhibit human chordoma cells
